Assay results from paper PMC6203605 (Journal of biological inorganic chemistry : JBIC : a …, 2018).

Experiments:
[1] = target: HemO (Pseudomonas aeruginosa, UniProt G3XCZ8, D99A); assay: biochemical
[2] = target: HemO (Pseudomonas aeruginosa, UniProt G3XCZ8); assay: intrinsic fluorescence quenching; assay type: binding
[3] = target: HemO (Pseudomonas aeruginosa, UniProt G3XCZ8, R188A); assay: biochemical
[4] = target: HemO (Pseudomonas aeruginosa, UniProt G3XCZ8, D99A/R188A); assay: biochemical

With C=CC1=C(C)C2=Cc3c(C=C)c(C)c4[n]3[Fe]([Cl])[n]3c(c(C)c(CCC(=O)O)c3=CC3=NC(=C4)C(C)=C3CCC(=O)O)=CC1=N2 [heme] the Kd [1] was 830 ± 210 nM, the Kd [2] was 870 ± 170 nM and the Kd [3] was 790 ± 220 nM. The Kd [4] was 990 ± 210 nM.
